Consider 17 molecules from US20240124470A1, “FIVE-MEMBERED RING DERIVATIVE AND MEDICAL USE THEREOF” (SICHUAN HAISCO PHARMACEUTICAL CO., LTD., priority 2020, published 2024).

Read-outs that look alike come from different tables or passages of the source.

The assay has as its target T1, GLP-1 receptor (Homo sapiens, UniProt P43220).
T1 construct: expressed in transfected cells
Put plainly: HEK293/CRE-luc/GLP-1R cell luciferase reporter test (agonistic effect on GLP-1 receptor). In kind it is cell-based. As to conditions: HEK293/CRE-luc/GLP-1R cells. On the procedure: 1. HEK293/CRE-luc/GLP-1β cell viability
Cell: HEK293/CRE-luc/GLP-1R
Cell culture medium: DMEM+10% FBS+400 μg/ml G418+100 μg/ml Hygromycin B
Frozen stock solution: 90% FBS, 10% (V/V) DMSO
Detection buffer: DMEM+1% FBS
Cells were cultured in DMEM medium+10% FBS+400 μg/ml G418+100 μg/ml Hygromycin B in a CO2 incubator at 37° C., and passaged once every 3-4 days.
Cell plating: Trypsinization adjusted the cell density to 1.67×10^5 cells/mL; 60 μL of cells per well (10000 cells/well) was inoculated in a 384-well plate containing compounds; A NC well (negative control) and a background well (no cells) were set. Incubation was performed for about 18+2 h in the incubator.
Compounds were serially diluted with the detection buffer, and the detection concentration was 0.01 nM-1000 nM.
The cell culture plate was removed and all supernatant was aspirated from the cells. The cells were washed gently 2 times with 1×PBS.
The diluted compound was added to a 384-well plate (10 μL/well), and three replicate wells were set for each concentration. 10 μL of the detection buffer was added to the NC well, sealed and incubated at 37° C. for 6 hours.
The plate was removed, the cells were allowed to equilibrate to room temperature (at least 15 min), and then all supernatant was aspirated from the cells.
Steady-Glo® Reagent was added to the sample well at 10 μL/well and incubated at room temperature for 5 min to lyse the cells.
The test results were read with a BMG microplate reader.
The mean background value was calculated.
The induction factor (Fold of induction, FI)=(induction well value−background value)/(negative control well value −background value) was calculated.
The EC50 value of the sample was calculated using Graphpad Prim 8.0 software using four-parameter fitting analysis.
Mean and standard error (Mean±SEM) were calculated for all results and Graphpad Prism software was used for statistical analysis. Specific data were presented in the form of graphs. P<0.05 was considered to be statistically different.
A general note: A reporter such as luciferase makes a cellular process visible.

Where [1] appears, read: 6 hours incubation, class symbols, read-out: EC50.
[2] abbreviates: bound stated, read-out: EC50 value.

T1 sequence (P43220 24-463): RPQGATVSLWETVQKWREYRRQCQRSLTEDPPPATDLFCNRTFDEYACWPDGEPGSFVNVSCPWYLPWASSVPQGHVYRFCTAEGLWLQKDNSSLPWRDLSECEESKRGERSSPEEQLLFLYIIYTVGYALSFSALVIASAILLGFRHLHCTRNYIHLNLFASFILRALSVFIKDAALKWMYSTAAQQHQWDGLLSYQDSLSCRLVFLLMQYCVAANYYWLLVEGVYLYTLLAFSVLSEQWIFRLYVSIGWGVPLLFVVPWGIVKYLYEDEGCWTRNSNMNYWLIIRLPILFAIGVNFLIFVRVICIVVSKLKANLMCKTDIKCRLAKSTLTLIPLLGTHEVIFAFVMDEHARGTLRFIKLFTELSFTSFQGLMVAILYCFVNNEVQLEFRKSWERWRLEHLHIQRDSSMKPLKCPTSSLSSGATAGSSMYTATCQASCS

Broadly, the EC50 is the concentration giving half of the maximal effect. For the molecule `CC1(c2ccc(Cl)cc2F)Oc2cccc(C3CCN(Cc4nc5sc(C(=O)O)cc5n4C[C@@H]4CCO4)CC3)c2O1` (stereo partly drawn) [Compound 4, 2-((4-(2-(4-chloro-2-fluorophenyl)-2-methylbenzo[d][1,3]dioxol-4-yl)piperidin-1-yl)methyl)-1-(((S)-oxetan-2-yl)methyl)-1H-thieno[2,3-d]imidazole-5-carboxylic acid], the EC50 under setting [1] was < 10 nM and the concentration giving a half-maximal response (EC50) under setting [2] was < 10 nM.
`CC1(c2ccc(C#N)cc2F)Oc2cccc(C3CCN(Cc4nc5sc(C(=O)O)cc5n4C[C@@H]4CCO4)CC3)c2O1` (stereo partly drawn) [Compound 5, 2-((4-(2-(4-cyano-2-fluorophenyl)-2-methylbenzo[d][1,3]dioxol-4-yl)piperidin-1-yl)methyl)-1-(((S)-oxetan-2-yl)methyl)-1H-thieno[2,3-d]imidazole-5-carboxylic acid]: the concentration giving a half-maximal response (EC50) under setting [1] is < 10 nM and the EC50 under setting [2] was < 10 nM.
Regarding `N#Cc1ccc(COc2cccc(-c3ccc(Cc4nc5sc(C(=O)O)cc5n4C[C@@H]4CCO4)cc3)n2)c(F)c1` [Compound 7, (S)-2-(4-(6-((4-cyano-2-fluorobenzyl)oxy)pyridin-2-yl)benzyl)-1-(oxetan-2-ylmethyl)-1H-thieno[2,3-d]imidazole-5-carboxylic acid], the 50% effective concentration (EC50) is < 10 nM under setting [1] and < 10 nM under setting [2].
As for `Cc1cc(Cc2nc3sc(C(=O)O)cc3n2C[C@@H]2CCO2)c(F)cc1-c1cccc(OCc2ccc(C#N)cc2F)n1` [Compound 8, (S)-2-(4-(6-((4-cyano-2-fluorobenzyl)oxy)pyridin-2-yl)-2-fluoro-5-methylbenzyl)-1-(oxetan-2-ylmethyl)-1H-thieno[2,3-d]imidazole-5-carboxylic acid], the concentration giving a half-maximal response (EC50) runs as follows: under setting [1], < 10 nM; under setting [2], < 10 nM.
As to `N#Cc1ccc(COc2cccc(-c3cnn(Cc4nc5sc(C(=O)O)cc5n4C[C@@H]4CCO4)c(=O)c3)n2)c(F)c1` [Compound 9, (S)-2-((4-(6-((4-cyano-2-fluorobenzyl)oxy)pyridin-2-yl)-6-oxopyridazin-1(6H)-yl)methyl)-1-(oxetan-2-ylmethyl)-1H-thieno[2,3-d]imidazole-5-carboxylic acid], the concentration for a half-maximal effect (EC50) was < 10 nM under setting [1] and < 10 nM under setting [2].
As for `CC1(c2ccc(Cl)cc2F)Oc2cccc(-c3ccc(Cc4nc5sc(C(=O)O)cc5n4C[C@@H]4CCO4)c(F)c3)c2O1` (stereo partly drawn) [Compound 10, 2-(4-(2-(4-chloro-2-fluorophenyl)-2-methylbenzo[d][1,3]dioxol-4-yl)-2-fluorobenzyl)-1-(((S)-oxetan-2-yl)methyl)-1H-thieno[2,3-d]imidazole-5-carboxylic acid], the EC50 is, setting by setting: under setting [1], < 10 nM; under setting [2], < 10 nM.
Regarding `CC1(c2ccc(Cl)cc2F)Oc2cccc(-c3ccc(Cc4nc5sc(C(=O)O)cc5n4C[C@@H]4CCO4)cc3)c2O1` (stereo partly drawn) [Compound 11, 2-(4-(2-(4-chloro-2-fluorophenyl)-2-methylbenzo[d][1,3]dioxol-4-yl)benzyl)-1-(((S)-oxetan-2-yl)methyl)-1H-thieno[2,3-d]imidazole-5-carboxylic acid], the concentration for a half-maximal effect (EC50) is < 10 nM under setting [1] and < 10 nM under setting [2].
Consider `N#Cc1ccc(COc2cccc(C3CCN(Cc4nc5sc(C(=O)O)cc5n4C[C@@H]4CCCO4)CC3)n2)c(F)c1` [Compound 12, (S)-2-((4-(6-((4-cyano-2-fluorobenzyl)oxy)pyridin-2-yl)piperidin-1-yl)methyl)-1-((tetrahydrofuran-2-yl)methyl)-1H-thieno[2,3-d]imidazole-5-carboxylic acid], for which the EC50 was < 10 nM under setting [1] and < 10 nM under setting [2].
With `N#Cc1ccc(COc2cccc(N3CCN(Cc4nc5sc(C(=O)O)cc5n4C[C@@H]4CCO4)CC3)n2)c(F)c1` [Compound 13, (S)-2-((4-(6-((4-cyano-2-fluorobenzyl)oxy)pyridin-2-yl)piperazin-1-yl)methyl)-1-(oxetan-2-ylmethyl)-1H-thieno[2,3-d]imidazole-5-carboxylic acid], the EC50 under setting [1] is < 10 nM and the 50% effective concentration (EC50) under setting [2] is < 10 nM.
For the molecule `N#Cc1ccc(COc2ncccc2C2CCN(Cc3nc4sc(C(=O)O)cc4n3C[C@@H]3CCO3)CC2)c(F)c1` [Compound 15, (S)-2-((4-(2-((4-cyano-2-fluorobenzyl)oxy)pyridin-3-yl)piperidin-1-yl)methyl)-1-(oxetan-2-ylmethyl)-1H-thieno[2,3-d]imidazole-5-carboxylic acid], the EC50 is, setting by setting: under setting [1], < 10 nM; under setting [2], < 10 nM.
Consider `N#Cc1ccc(COc2cccc(C3CCN(Cc4nc5cc(C(=O)O)sc5n4C[C@@H]4CCO4)CC3)n2)c(F)c1` [Compound 16, (S)-2-((4-(6-((4-cyano-2-fluorobenzyl)oxy)pyridin-2-yl)piperidin-1-yl)methyl)-3-(oxetan-2-ylmethyl)-3H-thieno[2,3-d]imidazole-5-carboxylic acid], for which the EC50 is < 10 nM under setting [1] and < 10 nM under setting [2].
On to `N#Cc1ccc(COc2nc(C3CCN(Cc4nc5sc(C(=O)O)cc5n4C[C@@H]4CCO4)CC3)ccc2F)c(F)c1` [Compound 17, (S)-2-((4-(6-((4-cyano-2-fluorobenzyl)oxy)-5-fluoropyridin-2-yl)piperidin-1-yl)methyl)-1-(oxetan-2-ylmethyl)-1H-thieno[2,3-d]imidazole-5-carboxylic acid], for which the EC50 reads like this: under setting [1], < 10 nM; under setting [2], < 10 nM.
In the case of `N#Cc1ccc(COc2nc(-c3ccc(Cc4nc5sc(C(=O)O)cc5n4C[C@@H]4CCO4)c(F)c3)ccc2F)c(F)c1` [Compound 18, (S)-2-(4-(6-((4-cyano-2-fluorobenzyl)oxy)-5-fluoropyridin-2-yl)-2-fluorobenzyl)-1-(oxetan-2-ylmethyl)-1H-thieno[2,3-d]imidazole-5-carboxylic acid], the EC50 is < 10 nM under setting [1] and < 10 nM under setting [2].
For `N#Cc1ccc(COc2cccc(-c3ccc(Cc4nc5sc(C(=O)O)cc5n4C[C@@H]4CCO4)c(F)c3)n2)cc1` [Compound 20, (S)-2-(4-(6-((4-cyanobenzyl)oxy)pyridin-2-yl)-2-fluorobenzyl)-1-(oxetan-2-ylmethyl)-1H-thieno[2,3-d]imidazole-5-carboxylic acid], the EC50 is < 10 nM under setting [1] and < 10 nM under setting [2].
On to `N#Cc1ccc(COc2cccc(-c3cc(F)c(Cc4nc5sc(C(=O)O)cc5n4C[C@@H]4CCO4)cc3F)n2)c(F)c1` [Compound 21, (S)-2-(4-(6-((4-cyano-2-fluorobenzyl)oxy)pyridin-2-yl)-2,5-difluorobenzyl)-1-(oxetan-2-ylmethyl)-1H-thieno[2,3-d]imidazole-5-carboxylic acid], for which the EC50 under setting [1] is < 10 nM and the half-maximal effective concentration (EC50) under setting [2] was < 10 nM.
As to `N#Cc1ccc(COc2nc(-c3cc(F)c(Cc4nc5sc(C(=O)O)cc5n4C[C@@H]4CCO4)cc3F)ccc2F)c(F)c1` [Compound 22, (S)-2-(4-(6-((4-cyano-2-fluorobenzyl)oxy)-5-fluoropyridin-2-yl)-2,5-difluorobenzyl)-1-(oxetan-2-ylmethyl)-1H-thieno[2,3-d]imidazole-5-carboxylic acid], the EC50 is < 10 nM under setting [1] and < 10 nM under setting [2].
Turning to `N#Cc1ccc(COc2cccc(-c3cc(F)c(Cc4nc5sc(C(=O)O)cc5n4C[C@@H]4CCO4)cc3F)n2)cc1` [Compound 23, (S)-2-(4-(6-((4-cyanobenzyl)oxy)pyridin-2-yl)-2,5-difluorobenzyl)-1-(oxetan-2-ylmethyl)-1H-thieno[2,3-d]imidazole-5-carboxylic acid], the EC50 under setting [1] was < 10 nM and the EC50 under setting [2] is < 10 nM.
